Test results taken from US20230109839A1, “THERAPEUTIC AGENT FOR TAUOPATHIES” (SUMITOMO PHARMA CO., LTD., priority 2020, published 2023).
“Also recorded” adds a separate entry of the source. Read-outs that look alike come from different tables or passages of the source.

Tests used:
[1] = tested on: phosphorylated tau oligomer; assay: Evaluation of phosphorylated tau oligomers in brain of APP-Tg mice, Western blotting (Test 4); format: in vivo, mouse; settings: for Reducing effect of phosphorylated tau oligomer: 7-10 days, with ABT 1 mg/g-food; for reducing effect of tau oligomer: with food for 7-10 days, ABT 1 mg/g-food depending on the compound, brain, anti-oligomerized tau antibody TOMA-1
Description: Test 4: Evaluation of Phosphorylated Tau Oligomers Using APP-Tg Mice
This test is a test to quantify the oligomer of phosphorylated tau in the brain to evaluate the action of a compound. […] The APP-Tg mice used herein were prepared by the method described in Test 3.
The test compound administered with food to APP-Tg mice for 7-10 days. At this time, in order to increase the blood concentration of the test compound, ABT was used in combination with a mixed diet of 1 mg/g-food depending on the compound. After the administration, the brain was collected, and the protein is extracted from the collected brain using TBS (Tris Buffered Saline) or sarcosyl, and then SDS-PAGE (sodium dodecyl sulfate-polyacrylamide gel electrophoresis) of the soluble or insoluble fraction was performed. After that, Western blotting was performed using an anti-oligomerized tau antibody (Anti-Tau, oligomeric, clone TOMA-1), and the effect of the test compound was evaluated by quantifying the band amount of the phosphorylated tau oligomer.
The reducing effect of phosphorylated tau oligomer was calculated by the following formula, and from the calculated values, the results were defined as follows: 0-25%: +, 25-50%: ++, 50-75%: +++, and 75-100%: ++++. The significant difference from the vehicle-administered group was determined using the Student t-test. For the band amount, the value corrected by the β-actin band amount was used.
Reducing effect of phosphorylated tau oligomer={(band amount of oligomerized tau in vehicle-administered group−band amount of oligomerized tau in test compound-administered group)/band amount of oligomerized tau in vehicle-administered group}×100

[2] = biological target: T1, human Nav1.1 (Homo sapiens, UniProt P35498); assay: Amplification of Nav1.1-derived voltage-gated sodium current (Nav1.1 current), automated patch clamp (Test 1); format: cell-based; settings: read-out: Nav1.1 current amplification rate (%)
T1 construct: host or cells: HEK293
How it was run: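 HEK293 cells stably expressing human Nav1.1, restricted to cells with >500 pA current, were recorded by automated voltage-clamp patch clamp with a ramp voltage stimulus. Compounds were applied in HEPES-buffered extracellular solution with 1% DMSO. Amplification (%) = 100×(peak or AUC after/before compound)−100.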

[3] = tested on: APP-Tg mouse; assay: Evaluation of the cognitive function by novel object recognition test (NORT) in APP-Tg mice (Test 3); format: in vivo; design: key to Discrimination index: (novel − known search time)/(novel + known search time); settings: for improvement of cognitive function (NORT), summary of the above results / improvement of cognitive function (NORT): APP-Tg mice; for improvement of cognitive function (NORT), summary of the above results: alone, with Elacridar or with ABT depending on the compound; for improvement of cognitive function (NORT): test compound and ABT (1 mg/g-food) administered with food for 10 days; for Discrimination index: APP-Tg mouse, with ABT 1 mg/g-food
Description: Test 3: Evaluation of the Cognitive Function by Novel Object Recognition Test (Hereinafter, Also Referred to as “NORT”)
The present test is for evaluating the improvement of cognitive function with the test compounds. When an APP-Tg mouse which is an AD (Alzheimer's disease) model mouse is evaluated by NORT, the memory for a familiar object decreases depending on the time interval between the first trial run (training) and the second trial run (test). For example, if the first trial run is done and 3 hours later the second one is done, there is no difference in the searching times between novel object and known object for the APP-Tg mouse, compared with a healthy mouse. Thus, the APP-Tg mouse suffers from significant amnesia.
The APP-Tg mouse used herein was prepared by constructing an expression cassette linked to human APP751 isoform to which Swedish (K670N/M671L) and Indiana (V717F) mutation were introduced at downstream of mouse Thy-1 promoter, then injecting the expression cassette into a mouse fertilized egg, and transplanting it to a host mouse. The prepared mouse presents with intracerebral AB accumulation and cognitive dysfunction from early on, and thus the mouse can be used for the evaluation of cognitive function. APP-Tg mouse has been also reported in Non-patent literature 6.
To the prepared APP-Tg mouse, the test compound was administered, and then the first trial run was done for the mouse 30 minutes after the intraperitoneal administration or after 10 days of mixed diet administration. The second trial run was done 3 hours after the first trial run, and the searching times between novel object and known object in the second trial were evaluated. The discrimination index was calculated from the searching time for novel object and known object in the second trial run, and the improvement of cognitive function of the test compound was confirmed by comparing the discrimination index with the test compound-unadministered group as an index of the cognitive function. The discrimination index was calculated by the following formula.
Discrimination index={(Searching time for novel object)−(Searching time for known object)}/{(Searching time for novel object)+(Searching time for known object)}
The present test can be also done with a combination with Elacridar (Tokyo Chemical Industry Co., Ltd.). Elacridar can inhibit P-gp and BCRP which are excretion transporters expressed in the blood-brain barrier and thereby Elacridar has the effect of improving the transferability of the test compound to the brain. Eracridal was orally administered to APP-Tg mice at 100 mg/kg 2 hours before the first trial run, and then the test compound was intraperitoneally administered to the mice 30 minutes before the first trial run according to the above method. And, the improvement of cognitive function was evaluated. The significant difference from the vehicle-administered group was determined using the parametric Dunnett multiple comparison test.
And, the present test can be also done with a combination with ABT (1-aminobenzotriazole) (Tokyo Chemical Industry Co., Ltd.). ABT has the effect of improving the blood concentration of the test compound by inhibiting CYP and suppressing metabolism. The test compound and ABT (1 mg/g-food) were administered with food to APP-Tg mice for 10 days, and then the improvement of cognitive function was evaluated according to the above method. The significant difference from the vehicle-administered group was determined using the parametric Dunnett multiple comparison test.

[4] = HEK293, Concentration for evaluation 1 μM, HEK293 cell line stably expressing human Nav1.1
[5] = HEK293, concentration for evaluation 1 μM, HEK293 stably expressing human Nav1.1

| SMILES | activation at 1 µM [2, 4] [%] | activation at 3 µM ([2]; HEK293, Concentration for evaluation 3 μM, HEK293 cell line stably expressing human Nav1.1) [%] | activation at 1 µM [2, 5] [%] | Reducing effect of phosphorylated tau oligomer ([1]; dose 0.6 mg/g-food) | Reducing effect of phosphorylated tau oligomer ([1]; dose 2 mg/g-food) | reducing effect of tau oligomer [1] | Reducing effect of phosphorylated tau oligomer ([1]; dose 0.2 mg/g-food) | improvement of cognitive function (NORT), summary of the above results [3] | improvement of cognitive function (NORT) [3] | Discrimination index ([3]; dose 0.2 mg/g-food for 10 days) | Discrimination index ([3]; dose 2 mg/g-food for 10 days) | Reducing effect of phosphorylated tau oligomer ([1]; dose 0.1 mg/g-food) | Reducing effect of phosphorylated tau oligomer ([1]; dose 4 mg/g-food) | Discrimination index ([3]; dose 0.1 mg/g-food for 10 days) | Discrimination index ([3]; dose 4 mg/g-food for 10 days) |
| --- | --- | --- | --- | --- | --- | --- | --- | --- | --- | --- | --- | --- | --- | --- | --- |
| Cc1cc(NC(=O)Cn2nc(C3=CCC(C)CC3)ccc2=O)cc(C)n1 (centres unmarked) [Example 364, N-(2,6-dimethylpyridin-4-yl)-2-[3-(4-methylcyclohex-1-en-1-yl)-6-oxopyridazin-1(6H)-yl]acetamide] | 25 |  |  | + (0-25%: +) | + (0-25%: +) |  |  |  |  |  |  |  |  |  |  |
| Cc1ncccc1N1CCN(C(=O)Cn2nc(C3=CCC(C)CC3)ccc2=O)CC1 (centres unmarked) [Example 410, 6-(4-methylcyclohex-1-en-1-yl)-2-{2-[4-(2-methylpyridin-3-yl)piperazin-1-yl]-2-oxoethyl}pyridazin-3 (2H)-one] |  | 66 |  | +++ (50-75%: +++) | + (0-25%: +) | some reducing effect of tau oligomer; also recorded: strong reducing effect of tau oligomer |  |  |  |  |  |  |  |  |  |
| CN(c1cnc2cnn(CC(=O)Nc3ccn4ncnc4c3)c2n1)C1CC2(CC2)C1 [Example 630, 2-{6-[methyl(spiro[2.3]hexan-5-yl)amino]-1H-pyrazolo[3,4-b]pyrazin-1-yl}-N-([1,2,4]triazolo[1,5-a]pyridin-7-yl)acetamide] | 120 |  |  |  | ++ (25-50%: ++) | some reducing effect of tau oligomer | ++ (25-50%: ++) | some improvement of cognitive function | some improvement of cognitive function | 0.04 | 0.45 |  |  |  |  |
| N#Cc1ccc(NC(=O)Cn2ncc3ncc(N4CCC5(CC5)C(F)(F)C4)nc32)cn1 [Example 746, N-(6-cyanopyridin-3-yl)-2-[6-(4,4-difluoro-6-azaspiro[2.5]octan-6-yl)-1H-pyrazolo[3,4-b]pyrazin-1-yl]acetamide] | 102 |  |  |  | ++ (25-50%: ++) | some reducing effect of tau oligomer | ++ (25-50%: ++) | some improvement of cognitive function | some improvement of cognitive function | 0.28 | 0.38 |  |  |  |  |
| CN(c1cnc2cnn(CC(=O)Nc3ccc(C#N)nc3)c2n1)C1CC2(CC2)C1 [Example 753, N-(6-cyanopyridin-3-yl)-2-{6-[methyl(spiro[2.3]hexan-5-yl)amino]-1H-pyrazolo[3,4-b]pyrazin-1-yl}acetamide] | 106 |  |  |  |  | some reducing effect of tau oligomer |  |  |  |  |  | ++ (25-50%: ++) | ++ (25-50%: ++) | 0.21 | 0.28 |

Now from value to molecule, other results behind:

| activation at 1 µM [2, 4] [%] | activation at 3 µM ([2]; HEK293, Concentration for evaluation 3 μM, HEK293 cell line stably expressing human Nav1.1) [%] | activation at 1 µM [2, 5] [%] | SMILES | Reducing effect of phosphorylated tau oligomer ([1]; dose 0.6 mg/g-food) | Reducing effect of phosphorylated tau oligomer ([1]; dose 2 mg/g-food) | reducing effect of tau oligomer [1] | Reducing effect of phosphorylated tau oligomer ([1]; dose 0.2 mg/g-food) | improvement of cognitive function (NORT), summary of the above results [3] | improvement of cognitive function (NORT) [3] | Discrimination index ([3]; dose 0.2 mg/g-food for 10 days) | Discrimination index ([3]; dose 2 mg/g-food for 10 days) | Reducing effect of phosphorylated tau oligomer ([1]; dose 0.1 mg/g-food) | Reducing effect of phosphorylated tau oligomer ([1]; dose 4 mg/g-food) | Discrimination index ([3]; dose 0.1 mg/g-food for 10 days) | Discrimination index ([3]; dose 4 mg/g-food for 10 days) |
| --- | --- | --- | --- | --- | --- | --- | --- | --- | --- | --- | --- | --- | --- | --- | --- |
|  |  | 88 | CN(CC1CCC1)c1ncc2cnn(CC(=O)Nc3ccc4ncnn4c3)c2n1 [Example 819, 2-{6-[(cyclobutylmethyl)(methyl)amino]-1H-pyrazolo[3,4-d]pyrimidin-1-yl}-N-([1,2,4]triazolo[1,5-a]pyridin-6-yl)acetamide] |  | + (0-25%: +) | some reducing effect of tau oligomer | ++ (25-50%: ++) | some improvement of cognitive function | some improvement of cognitive function; also recorded: strong improvement of cognitive function | 0.47 | 0.52 |  |  |  |  |
|  |  | 116 | CN(c1ncc2cnn(CC(=O)Nc3ccc4ncnn4c3)c2n1)C1CC(C)(C)C1 [Example 821, 2-{6-[(3,3-dimethylcyclobutyl)(methyl)amino]-1H-pyrazolo[3,4-d]pyrimidin-1-yl}-N-([1,2,4]triazolo[1,5-a]pyridin-6-yl)acetamide] |  | + (0-25%: +) |  | + (0-25%: +) | some improvement of cognitive function | some improvement of cognitive function; also recorded: strong improvement of cognitive function | 0.30 | 0.37 |  |  |  |  |
